What was measured:
[1] = system: Echinochloa oryzoides (Ard.) Fritsch.; test: Preemergence weed control under flooded paddy conditions, ECHORC (Watergrass (Calif.)); format: in vivo; settings: flooded paddy; for herbicidal effect rating, ECHORC: meaning of each grade not given here
[2] = system: Cyperus iria; test: Preemergence weed control under flooded paddy conditions, CYPIR (Rice Flatsedge); format: in vivo; settings: flooded paddy; for herbicidal effect rating, CYPIR: meaning of each grade not given here
[3] = system: Cyperus serotinus, Rottb.; test: Preemergence weed control under flooded paddy conditions, CYPSE (Flatsedge); format: in vivo; for herbicidal effect rating, CYPSE: meaning of each grade not given here
[4] = system: Monochoria vaginalis, Presl.; test: Preemergence weed control under flooded paddy conditions, MOOVA (Monochoria); format: in vivo; settings: flooded paddy; for herbicidal effect rating, MOOVA: meaning of each grade not given here
[5] = system: Sagittaria pygmaea, L.; test: Preemergence weed control under flooded paddy conditions, SAGPY (Arrowhead (Pygmaea)); format: in vivo; settings: flooded paddy; for herbicidal effect rating, SAGPY: meaning of each grade not given here
[6] = system: Oryza sativa, (L.) Tebonnet; test: Rice tolerance to post-transplant applications under flooded paddy conditions (Example 187), ORYSAT (Rice, Tebonnet); for herbicidal effect rating ORYSAT: meaning of each grade not given here
[7] = 0.0313 kg/ha, preemergence weeds, rated three to four weeks after treatment
[8] = 0.0625 kg/ha, preemergence weeds, rated three to four weeks after treatment
[9] = 0.1250 kg/ha, preemergence weeds, rated three to four weeks after treatment
[10] = 0.2500 kg/ha, preemergence weeds, rated three to four weeks after treatment
[11] = 0.1250 kg/ha, rated three to four weeks after treatment
[12] = 0.2500 kg/ha, rated three to four weeks after treatment
[13] = 0.0320 kg/ha, preemergence, rated three to four weeks after treatment
[14] = 0.0620 kg/ha, preemergence, rated three to four weeks after treatment
[15] = 0.1250 kg/ha, preemergence, rated three to four weeks after treatment
[16] = 0.2500 kg/ha, preemergence, rated three to four weeks after treatment
[17] = Rate 0.0320 kg/ha, preemergence weeds, rated three to four weeks after treatment
[18] = Rate 0.0620 kg/ha, preemergence weeds, rated three to four weeks after treatment
[19] = Rate 0.1250 kg/ha, preemergence weeds, rated three to four weeks after treatment
[20] = Rate 0.2500 kg/ha, preemergence weeds, rated three to four weeks after treatment
[21] = Rate 0.0320 kg/ha, preemergence, rated 3-4 weeks after treatment
[22] = Rate 0.0620 kg/ha, preemergence, rated 3-4 weeks after treatment
[23] = Rate 0.1250 kg/ha, preemergence, rated 3-4 weeks after treatment
[24] = Rate 0.2500 kg/ha, preemergence, rated 3-4 weeks after treatment
[25] = Rate 0.5000 kg/ha, preemergence, rated 3-4 weeks after treatment

Structure (SMILES): Cc1ccc(OC2CC(C)OC2=O)c(-c2nsc3ccc(-n4c(=O)cc(C(F)(F)F)n(C)c4=O)cc23)c1 (racemic) [Example 189, 1-Methyl-3-{3-{6-[(tetrahydro-5-methyl-2-oxo-3-furyl)oxy]-m-tolyl}-1,2-benzisothiazol-5-yl}-6-(trifluoromethyl)-2,4(1H,3H)-pyrimidinedione, DL-]
- herbicidal effect rating, ECHORC [1, 7]: 0.0
- herbicidal effect rating, ECHORC [1, 8]: 0.0
- herbicidal effect rating, ECHORC [1, 9]: 0.0
- herbicidal effect rating, ECHORC [1, 10]: 0.0
- herbicidal effect rating, CYPIR [2, 7]: 0.0
- herbicidal effect rating, CYPIR [2, 8]: 0.0
- herbicidal effect rating, CYPIR [2, 9]: 0.0
- herbicidal effect rating, CYPIR [2, 10]: 0.0
- herbicidal effect rating, CYPSE [3, 7]: 0.0
- herbicidal effect rating, CYPSE [3, 8]: 0.0
- herbicidal effect rating, CYPSE [3, 9]: 0.0
- herbicidal effect rating, CYPSE [3, 10]: 0.0
- herbicidal effect rating, MOOVA [4, 7]: 0.0
- herbicidal effect rating, MOOVA [4, 8]: 0.0
- herbicidal effect rating, MOOVA [4, 9]: 2.0
- herbicidal effect rating, MOOVA [4, 10]: 8.0
- herbicidal effect rating, SAGPY [5, 7]: 0.0
- herbicidal effect rating, SAGPY [5, 8]: 0.0
- herbicidal effect rating, SAGPY [5, 9]: 0.0
- herbicidal effect rating, SAGPY [5, 10]: 0.0
- herbicidal effect rating, ORYSAT (rice tolerance) ([6]; 0.0313 kg/ha, rated three to four weeks after treatment): 0.0
- herbicidal effect rating, ORYSAT (rice tolerance) ([6]; 0.0625 kg/ha, rated three to four weeks after treatment): 0.0
- herbicidal effect rating, ORYSAT (rice tolerance) [6, 11]: 0.0
- herbicidal effect rating, ORYSAT (rice tolerance) [6, 12]: 0.0

Structure (SMILES): Cc1ccccc1CS(=O)(=O)NC(=O)c1nsc2ccc(-n3c(=O)cc(C(F)(F)F)n(C)c3=O)cc12 [Example 465, 1,2-Benzisothiazole-3-carboxamide, 5-[3,6-dihydro-3-methyl-2,6-dioxo-4-(trifluoromethyl)-1(2H)-pyrimidinyl]-N-[(o-methylbenzyl)sulfonyl]-]
- ECHORC herbicidal rating [1, 13]: 6.0
- ECHORC herbicidal rating [1, 14]: 6.0
- ECHORC herbicidal rating [1, 15]: 7.0
- ECHORC herbicidal rating [1, 16]: 9.0
- CYPIR herbicidal rating [2, 13]: 0.0
- CYPIR herbicidal rating [2, 14]: 0.0
- CYPIR herbicidal rating [2, 15]: 3.0
- CYPIR herbicidal rating [2, 16]: 8.0
- CYPSE herbicidal rating [3, 13]: 0.0
- CYPSE herbicidal rating [3, 14]: 4.0
- CYPSE herbicidal rating [3, 15]: 7.0
- CYPSE herbicidal rating [3, 16]: 9.0
- MOOVA herbicidal rating [4, 13]: 2.0
- MOOVA herbicidal rating [4, 14]: 3.0
- MOOVA herbicidal rating [4, 15]: 6.0
- MOOVA herbicidal rating [4, 16]: 9.0
- SAGPY herbicidal rating [5, 13]: 2.0
- SAGPY herbicidal rating [5, 14]: 5.0
- SAGPY herbicidal rating [5, 15]: 5.0
- SAGPY herbicidal rating [5, 16]: 6.0
- ORYSAT herbicidal rating (rice tolerance) ([6]; 0.0320 kg/ha, rated three to four weeks after treatment): 2.0
- ORYSAT herbicidal rating (rice tolerance) ([6]; 0.0620 kg/ha, rated three to four weeks after treatment): 3.0
- ORYSAT herbicidal rating (rice tolerance) [6, 11]: 4.0
- ORYSAT herbicidal rating (rice tolerance) [6, 12]: 5.0

Structure (SMILES): COC(=O)C(C)Oc1cccc(-c2nsc3ccc(-n4c(=O)cc(C(F)(F)F)n(C)c4=O)cc23)c1 (stereo not drawn) [Example 325, Propionic acid, 2-{m-{5-[3,6-dihydro-3-methyl-2,6-dioxo-4-(trifluoromethyl)-1-(2H)-pyrimidinyl]-1,2-benzisothiazol-3-yl}phenoxy}-, methyl ester]
- herbicidal effect rating, ECHORC [1, 17]: 7.7
- herbicidal effect rating, ECHORC [1, 18]: 9.0
- herbicidal effect rating, ECHORC [1, 19]: 9.0
- herbicidal effect rating, ECHORC [1, 20]: 9.0
- herbicidal effect rating, CYPIR [2, 17]: 8.0
- herbicidal effect rating, CYPIR [2, 18]: 8.7
- herbicidal effect rating, CYPIR [2, 19]: 9.0
- herbicidal effect rating, CYPIR [2, 20]: 9.0
- herbicidal effect rating, CYPSE [3, 17]: 4.7
- herbicidal effect rating, CYPSE [3, 18]: 9.0
- herbicidal effect rating, CYPSE [3, 19]: 7.3
- herbicidal effect rating, CYPSE [3, 20]: 9.0
- herbicidal effect rating, MOOVA [4, 17]: 8.0
- herbicidal effect rating, MOOVA [4, 18]: 9.0
- herbicidal effect rating, MOOVA [4, 19]: 9.0
- herbicidal effect rating, MOOVA [4, 20]: 9.0
- herbicidal effect rating, SAGPY [5, 17]: 4.0
- herbicidal effect rating, SAGPY [5, 18]: 4.3
- herbicidal effect rating, SAGPY [5, 19]: 6.3
- herbicidal effect rating, SAGPY [5, 20]: 9.0
- herbicidal effect rating ORYSAT ([6]; Rate 0.0320 kg/ha, rated three to four weeks after treatment): 2.7
- herbicidal effect rating ORYSAT ([6]; Rate 0.0620 kg/ha, rated three to four weeks after treatment): 3.0
- herbicidal effect rating ORYSAT ([6]; Rate 0.1250 kg/ha, rated three to four weeks after treatment): 3.7
- herbicidal effect rating ORYSAT ([6]; Rate 0.2500 kg/ha, rated three to four weeks after treatment): 4.0

Structure (SMILES): CCS(=O)(=O)NC(=O)COc1ccc(C)cc1-c1nsc2ccc(-n3c(=O)cc(C(F)(F)F)n(C)c3=O)cc12 [Example 554, Acetamide, 2-{{2-{5-[3,6-dihydro-3-methyl-2,6-dioxo-4-(trifluoromethyl)-1(2H)-pyrimidinyl)-1,2-benzisothiazol-3-yl}-p-tolyl}oxy}-N-(ethylsulfonyl)-]
- herbicidal effect rating, ECHORC [1, 21]: 3.0
- herbicidal effect rating, ECHORC [1, 22]: 4.1
- herbicidal effect rating, ECHORC [1, 23]: 5.7
- herbicidal effect rating, ECHORC [1, 24]: 9.0
- herbicidal effect rating, ECHORC [1, 25]: 7.0
- herbicidal effect rating, CYPIR [2, 21]: 2.0
- herbicidal effect rating, CYPIR [2, 22]: 7.0
- herbicidal effect rating, CYPIR [2, 23]: 9.0
- herbicidal effect rating, CYPIR [2, 24]: 9.0
- herbicidal effect rating, CYPIR [2, 25]: 5.0
- herbicidal effect rating, CYPSE [3, 21]: 0.0
- herbicidal effect rating, CYPSE [3, 22]: 0.0
- herbicidal effect rating, CYPSE [3, 23]: 4.0
- herbicidal effect rating, CYPSE [3, 24]: 9.0
- herbicidal effect rating, CYPSE [3, 25]: 9.0
- herbicidal effect rating, MOOVA [4, 21]: 9.0
- herbicidal effect rating, MOOVA [4, 22]: 9.0
- herbicidal effect rating, MOOVA [4, 23]: 9.0
- herbicidal effect rating, MOOVA [4, 24]: 9.0
- herbicidal effect rating, MOOVA [4, 25]: 9.0
- herbicidal effect rating, SAGPY [5, 21]: 0.0
- herbicidal effect rating, SAGPY [5, 22]: 0.0
- herbicidal effect rating, SAGPY [5, 23]: 0.0
- herbicidal effect rating, SAGPY [5, 24]: 9.0
- herbicidal effect rating, SAGPY [5, 25]: 0.0
- herbicidal effect rating ORYSAT ([6]; Rate 0.0320 kg/ha, rated 3-4 weeks after treatment): 4.0
- herbicidal effect rating ORYSAT ([6]; Rate 0.0620 kg/ha, rated 3-4 weeks after treatment): 4.0
- herbicidal effect rating ORYSAT ([6]; Rate 0.1250 kg/ha, rated 3-4 weeks after treatment): 6.0
- herbicidal effect rating ORYSAT ([6]; Rate 0.2500 kg/ha, rated 3-4 weeks after treatment): 7.0
- herbicidal effect rating ORYSAT ([6]; Rate 0.5000 kg/ha, rated 3-4 weeks after treatment): 6.0
